# Test results as given in patent publication USRE39192E1, “Supplemented and unsupplemented tissue sealants, methods of their production and use” (American National Red Cross, priority 1990, dated 2006).
# What was measured:
# NIH 3T3 fibroblasts = assay: Cell chemotaxis assay (modified Boyden's chamber), NIH 3T3 fibroblasts; format: cell-based
# Excerpt: (§1) NIH/3T3 fibroblasts at passage 126 were purchased from the American Type Culture Collection, Rockville, Md. Cultures from passages 129-133 were used in the chemotaxis assays. Cultures were propagated in DMEM supplemented with 10%. Calf serum and approximately 1% antibiotic antimycotic solution. Human dermal fibroblasts (HDFs) were purchased from Clonetics, Inc. (San Diego, Calif.) at passage 2. Cultures from passages 3-5 were used in the chemotaxis assays. Cultures were cultivated in DMEM supplemented with 20% FBS (Hyclone Laboratories, Inc., Logan, Utah) and approximately 1% antibiotic antimycotic solution (Gibco, Grand Island, N.Y.).
# The procedure used to determine cellular chemotaxis was a combination of two known methodologies. A modification of Boyden's chamber was used as follows: Millicell-PCF (Millipore, Inc., Bedford, Mass.) (12.0 μm) 12.0 mm diameter inserts were placed in individual wells of 24 well plates to create the upper and lower chemotaxis chambers. Chemotaxis results were arrived at by performing checkerboard analysis for every combination of cells and growth factors. […] Briefly, cultures were trypsanized and placed in DMEM+0.1% Bovine Serum Albumin (BSA) (Sigma Chemical Co., St. Louis, Mo.) for approximately one hour at 37° C. in a 5% CO2 humidified chamber. Tow to 2.5×10^5 cells in 50 μl were added per insert to the upper chamber of the setup of the 24 well plates. Treatments were added as mentioned above. The assay was kept at 37° C. in a 5% CO2 humidified chamber for 4 hours. All combinations tested were performed in triplicate. At the end of 4 hours, the plates were removed from the incubator and the filters were stained following the protocol for staining included with the Millicell-PCT inserts. Briefly, the fluid surrounding the inside and outside of the Millicell-PCF inserts were removed. Three percent glutaraldehyde (Sigma Chemical Co., St. Louis, Mo.) was added to the outside and inside of the inserts for approximately 20 minutes. Following removal of the 3.0% glutaraldehyde, 0.5% Triton X-100 (E.M. Science, Cherry Hill, N.J.) was added for 5-7 minutes. On removal of the 0.5% Triton X-100, Fisher's Hematoxylin Solution Gill's Formulation (Fisher Scientific, Newark, Del.) No.1 was added for about 10 minutes. This solution was washed off in running distilled water for about 5 minutes. Using a cotton swab the upper side of the filter was swabbed to remove cells which had not migrated. Filters, were mounted lower side facing up on slides in Crystal Mount™ (Biomedia, Inc., Foster City, Calif.) solution and 10 random field were counted per slide both visually at 400× and at 200×using an Image Analyzing System to automate the enumeration of the cells on the underside of the filters.
# (§2) As required, checkerboard analysis was carried out to determine random migration, and positive and negative chemotaxis. Growth factors were added to the upper and/or lower chambers to observe whether cells migrated towards the GF alone (chemotaxis), whether migration was random irrespective of whether the growth factor was added to the upper or lower well (chemokinesis) or whether cell migration was against the chemotactic gradient (negative chemotaxis).
# [1] = test system: human dermal fibroblasts (HDFs); assay: Cell chemotaxis assay (modified Boyden's chamber), human dermal fibroblasts; format: cell-based
# Excerpt: as §1
# The procedure used to determine cellular chemotaxis was a combination of two known methodologies. A modification of Boyden's chamber was used as follows: Millicell-PCF (Millipore, Inc., Bedford, Mass.) (12.0 μm) 12.0 mm diameter inserts were placed in individual wells of 24 well plates to create the upper and lower chemotaxis chambers. Chemotaxis results were arrived at by performing checkerboard analysis for every combination of cells and growth factors. Concentrations ranging from 0.1, 1, 10, 100 ng/ml with/without added heparin (10 U/ml) were used for FGF-1, FGF-2 (no heparin) and FGF-4 with all the cell types mentioned in the materials section. Briefly, cultures were trypsanized and placed in DMEM+0.1% Bovine Serum Albumin (BSA) (Sigma Chemical Co., St. Louis, Mo.) for approximately one hour at 37° C. in a 5% CO2 humidified chamber. Tow to 2.5×10^5 cells in 50 μl were added per insert to the upper chamber of the setup of the 24 well plates. Treatments were added as mentioned above. The assay was kept at 37° C. in a 5% CO2 humidified chamber for 4 hours. All combinations tested were performed in triplicate. At the end of 4 hours, the plates were removed from the incubator and the filters were stained following the protocol for staining included with the Millicell-PCT inserts. Briefly, the fluid surrounding the inside and outside of the Millicell-PCF inserts were removed. Three percent glutaraldehyde (Sigma Chemical Co., St. Louis, Mo.) was added to the outside and inside of the inserts for approximately 20 minutes. Following removal of the 3.0% glutaraldehyde, 0.5% Triton X-100 (E.M. Science, Cherry Hill, N.J.) was added for 5-7 minutes. On removal of the 0.5% Triton X-100, Fisher's Hematoxylin Solution Gill's Formulation (Fisher Scientific, Newark, Del.) No.1 was added for about 10 minutes. This solution was washed off in running distilled water for about 5 minutes. Using a cotton swab the upper side of the filter was swabbed to remove cells which had not migrated. Filters, were mounted lower side facing up on slides in Crystal Mount™ (Biomedia, Inc., Foster City, Calif.) solution and 10 random field were counted per slide both visually at 400× and at 200×using an Image Analyzing System to automate the enumeration of the cells on the underside of the filters.
# as §2
substance,measurement,setting,value
"HBGF-1: heparin binding growth factor-1, also known as ECGF and FGF-1; recombinant HBGF-1β expressed in E. coli",checkerboard analysis,NIH 3T3 fibroblasts,chemotactic
same,concentration of maximum stimulation of migration,NIH 3T3 fibroblasts; FGF-1 in the presence of 10 U/ml heparin,10 ng/mL
same,migrated cells (checkerboard analysis),"NIH 3T3 fibroblasts; lower 0 ng/ml, upper 1 ng/ml",53.93 +/− 4.152
same,migrated cells (checkerboard analysis),"NIH 3T3 fibroblasts; lower 0 ng/ml, upper 5 ng/ml",27.27 +/− 3.873
same,migrated cells (checkerboard analysis),"NIH 3T3 fibroblasts; lower 0 ng/ml, upper 10 ng/ml",25.96 +/− 4.151
same,migrated cells (checkerboard analysis),"NIH 3T3 fibroblasts; lower 1 ng/ml, upper 0 ng/ml",59.46 +/− 6.89
same,migrated cells (checkerboard analysis),"NIH 3T3 fibroblasts; lower 1 ng/ml, upper 1 ng/ml",36.9 +/− 5.728
same,migrated cells (checkerboard analysis),"NIH 3T3 fibroblasts; lower 1 ng/ml, upper 5 ng/ml",22.1 +/− 9.232
same,migrated cells (checkerboard analysis),"NIH 3T3 fibroblasts; lower 1 ng/ml, upper 10 ng/ml",35.86 +/− 2.074
same,migrated cells (checkerboard analysis),"NIH 3T3 fibroblasts; lower 5 ng/ml, upper 0 ng/ml",64.867 +/− 1.75
same,migrated cells (checkerboard analysis),"NIH 3T3 fibroblasts; lower 5 ng/ml, upper 1 ng/ml",41.44 +/− 1.866
same,migrated cells (checkerboard analysis),"NIH 3T3 fibroblasts; lower 5 ng/ml, upper 5 ng/ml",24.84 +/− 4.337
same,migrated cells (checkerboard analysis),"NIH 3T3 fibroblasts; lower 5 ng/ml, upper 10 ng/ml",41.6 +/− 6.717
same,migrated cells (checkerboard analysis),"NIH 3T3 fibroblasts; lower 10 ng/ml, upper 0 ng/ml",70.83 +/− 2.752
same,migrated cells (checkerboard analysis),"NIH 3T3 fibroblasts; lower 10 ng/ml, upper 1 ng/ml",39.73 +/− 2.428
same,migrated cells (checkerboard analysis),"NIH 3T3 fibroblasts; lower 10 ng/ml, upper 5 ng/ml",39.73 +/− 2.428
same,migrated cells (checkerboard analysis),"NIH 3T3 fibroblasts; lower 10 ng/ml, upper 10 ng/ml",41.83 +/− 6.879
same,checkerboard analysis,[1],chemotactic
same,maximal migratory response over negative control,[1],18 fold
same,migrated cells (checkerboard analysis),"[1]; lower 0 ng/ml, upper 0.1 ng/ml",48. +/− 1.965
same,migrated cells (checkerboard analysis),"[1]; lower 0 ng/ml, upper 1 ng/ml",1.3 +/− 0.351
same,migrated cells (checkerboard analysis),"[1]; lower 0 ng/ml, upper 10 ng/ml",4.6 +/− 2.424
same,migrated cells (checkerboard analysis),"[1]; lower 0 ng/ml, upper 100 ng/ml",2.4 +/− 2.59
same,migrated cells (checkerboard analysis),"[1]; lower 0.1 ng/ml, upper 0 ng/ml",66.46 +/− 3.304
same,migrated cells (checkerboard analysis),"[1]; lower 0.1 ng/ml, upper 0.1 ng/ml",3.5 +/− 1.550
same,migrated cells (checkerboard analysis),"[1]; lower 0.1 ng/ml, upper 1 ng/ml",22.0 +/− 6.621
same,migrated cells (checkerboard analysis),"[1]; lower 0.1 ng/ml, upper 10 ng/ml",9.7 +/− 7.758
same,migrated cells (checkerboard analysis),"[1]; lower 0.1 ng/ml, upper 100 ng/ml",11.6 +/− 8.609
same,migrated cells (checkerboard analysis),"[1]; lower 1 ng/ml, upper 0 ng/ml",90.0 +/− 5.776
same,migrated cells (checkerboard analysis),"[1]; lower 1 ng/ml, upper 0.1 ng/ml",27.7 +/− 8.10
same,migrated cells (checkerboard analysis),"[1]; lower 1 ng/ml, upper 1 ng/ml",52.6 +/− 2.775
same,migrated cells (checkerboard analysis),"[1]; lower 1 ng/ml, upper 10 ng/ml",9.7 +/− 3.553
same,migrated cells (checkerboard analysis),"[1]; lower 1 ng/ml, upper 100 ng/ml",1.83 +/− 2.2
same,migrated cells (checkerboard analysis),"[1]; lower 10 ng/ml, upper 0 ng/ml",92.4 +/− 29.307
same,migrated cells (checkerboard analysis),"[1]; lower 10 ng/ml, upper 0.1 ng/ml",55.1 +/− 7.151
same,migrated cells (checkerboard analysis),"[1]; lower 10 ng/ml, upper 1 ng/ml",44.2 +/− 11.844
same,migrated cells (checkerboard analysis),"[1]; lower 10 ng/ml, upper 10 ng/ml",16.2 +/− 4.781
same,migrated cells (checkerboard analysis),"[1]; lower 10 ng/ml, upper 100 ng/ml",21.2 +/− 6.42
same,migrated cells (checkerboard analysis),"[1]; lower 100 ng/ml, upper 0 ng/ml",65.4 +/− 22.055
same,migrated cells (checkerboard analysis),"[1]; lower 100 ng/ml, upper 0.1 ng/ml",53.7 +/− 7.3118
same,migrated cells (checkerboard analysis),"[1]; lower 100 ng/ml, upper 1 ng/ml",54.9 +/− 18.599
same,migrated cells (checkerboard analysis),"[1]; lower 100 ng/ml, upper 10 ng/ml",49.166 +/− 9.152
same,migrated cells (checkerboard analysis),"[1]; lower 100 ng/ml, upper 100 ng/ml",4.66 +/− 3.3
